One compound from PMC8226722, “Comparison of Solution Chemical Properties and Biological Activity of Ruthenium Complexes of Selected β-Diketone, 8-Hydroxyquinoline and Pyrithione Ligands” (Pharmaceuticals, 2021) can be followed below.

The experiment concerns Human herpes simplex virus-2 (HSV-2). Briefly: Antiviral activity in Vero cells, direct qPCR. Type of experiment: cell-based. The method, then: Then Vero cells were infected with HSV-2 (at MOI 0.2) and were treated with the complexes for 24 h. After 24 h post infection, the cells were lysed and the virus yield reducing effect of the compounds was evaluated by comparing the yield to that seen on untreated Vero cells. The HSV-2 DNA concentration was measured by direct qPCR.
Human herpes simplex virus-2 (HSV-2) strain was (gift from Dr. Ilona Mucsi, University of Szeged, Szeged, Hungary) grown in Vero (ATCC) cells and the infectivity was measured by using the plaque titration method. The virus titer was expressed in plaque forming units (PFU).
The plates were incubated for at 37 °C, 5% CO2 for 24 h. The plates were evaluated with quantitative PCR.
At the end of the infection (24 h for HSV-2, 48 h for C. trachomatis) the supernatants of the cells were removed and the cells were washed with PBS twice, and finally 100 μL in sucrose-phosphate-glutamic acid buffer (SPG) was measured into the wells, and the cells were subjected to two freeze-thaw cycles. The mixed cell lysates were used as a template in the qPCR as described previously. Briefly, qPCR was performed with the 5× HOT FIREPol®EvaGreen®qPCR Supermix (Solis Solis BioDyne, Tartu, Estonia) and C. trachomatis pykF gene specific primer pair in a Bio-Rad CFX96 real time PCR system. The pykF primer sequences were the following: 5′-[…]-3′, 5′-[…]-3′. For each sample the cycle threshold (Ct) number corresponding to the cycle where the amplification curve crossed the base line was determined. For the quantitative measurement of HSV-2 growth a similar qPCR method was used as was applied for C. trachomatis. The HSV-2 gD2 gene specific primer pair (gD2-F: 5′-[…]-3′, gD2-R 5′-[…]-3′ was used with a 69 °C annealing-extension temperature.

Regarding `Cc1ccc(C(C)C)cc1.O=C(C=C([O-])C(F)(F)F)c1ccc(Cl)cc1.[Cl-].[Ru+2]` [complex 7], under “HSV-2 MOI 0.2, 24 h”, the HSV-2 growth difference result is “ca. 237 fold” and the “qPCR cycles difference (dCT)” value is recorded as ~ 7.89 qPCR cycles. The IC50 (MOI 0.2, 24 h, qPCR, read-out: IC50 HSV-2 growth) was around 25 µM. For the same compound, the 90% effect concentration (IC90) (MOI 0.2, 24 h, qPCR, read-out: IC90 HSV-2 growth) was in the range of 50 to 100 µM.

By IC50 is commonly meant the midpoint of a concentration-inhibition curve. The term IC90 denotes the point of the concentration-response curve where the effect stands at 90%.
